Measured values as given in patent US20240158392A1 (Janssen Biotech, Inc., priority 2021, published 2024).

biological target: SIK2 (Homo sapiens, UniProt Q9H0K1); experiment: SIK2 Enzymatic Assay High Version 2 (High ATP); assay type: biochemical; conditions: enzyme 6 nM, 6 mM ATP and 400 μM HDAC5tide (each 2× final concentration); 30 minutes pre-incubation, 2 hours; ADP-Glo Max luminescence; read-out: SIK2 high ATP IC50 (μM) (Test Example 2)
Method in brief: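 At room temperature, enzyme (6 nM, 2× final) was preincubated with compound for 30 min, then 6 mM ATP and 400 μM HDAC5tide (both 2× final) were added for 2 h. ADP formed was measured by ADP-Glo Max (2 h reagent, 1 h detection) using luminescence.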

Sequence of SIK2 (Q9H0K1 whole entry, species assumed): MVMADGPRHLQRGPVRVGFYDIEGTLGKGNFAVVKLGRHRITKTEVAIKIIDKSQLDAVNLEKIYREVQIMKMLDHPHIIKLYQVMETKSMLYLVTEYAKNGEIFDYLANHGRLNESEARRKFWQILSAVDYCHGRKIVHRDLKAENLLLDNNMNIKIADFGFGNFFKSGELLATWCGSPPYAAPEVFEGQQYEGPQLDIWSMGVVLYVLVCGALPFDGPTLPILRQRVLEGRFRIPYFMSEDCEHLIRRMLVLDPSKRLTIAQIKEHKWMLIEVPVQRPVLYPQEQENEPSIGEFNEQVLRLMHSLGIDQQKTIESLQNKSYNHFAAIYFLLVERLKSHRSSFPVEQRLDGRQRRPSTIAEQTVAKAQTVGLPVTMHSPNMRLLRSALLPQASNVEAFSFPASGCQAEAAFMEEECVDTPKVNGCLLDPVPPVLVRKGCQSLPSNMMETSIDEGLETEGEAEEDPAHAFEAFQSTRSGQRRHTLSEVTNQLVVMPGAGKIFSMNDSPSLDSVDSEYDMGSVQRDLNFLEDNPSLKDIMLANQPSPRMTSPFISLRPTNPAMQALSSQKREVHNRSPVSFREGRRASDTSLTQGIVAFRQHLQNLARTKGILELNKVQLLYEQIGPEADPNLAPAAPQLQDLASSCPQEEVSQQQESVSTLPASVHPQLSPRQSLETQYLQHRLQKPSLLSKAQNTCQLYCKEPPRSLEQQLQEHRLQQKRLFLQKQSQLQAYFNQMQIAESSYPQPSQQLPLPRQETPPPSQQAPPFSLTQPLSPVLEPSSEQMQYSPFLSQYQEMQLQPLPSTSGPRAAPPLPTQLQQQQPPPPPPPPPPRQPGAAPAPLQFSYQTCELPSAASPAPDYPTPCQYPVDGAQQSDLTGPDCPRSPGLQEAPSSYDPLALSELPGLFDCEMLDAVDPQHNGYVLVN

Which IC50 does the source give for Cc1cc(Nc2cc3cc(-c4cc(NCC(F)F)ncc4OCC(C)(C)C#N)ccn3n2)nc(C)n1 [Example 667, 3-[[6-(2,2-difluoroethylamino)-4-[2-[(2,6-dimethylpyrimidin-4-yl)amino]pyrazolo[1,5-a]pyridin-5-yl]-3-pyridyl]oxy]-2,2-dimethyl-propanenitrile] here?
The IC50 was 0.0127 µM.

Which IC50 does the source give for COCc1cc(-c2ccn3nc(Nc4cc(C)nc(C)n4)cc3c2)c(OCC(C)(C)C#N)cn1 [Example 668, 3-[[4-[2-[(2,6-dimethylpyrimidin-4-yl)amino]pyrazolo[1,5-a]pyridin-5-yl]-6-(methoxymethyl)-3-pyridyl]oxy]-2,2-dimethyl-propanenitrile] here?
Its IC50 is 0.319 µM.

For CC(C)(C#N)COc1cnc(OCC(F)(F)F)cc1-c1ccn2nc(NC(=O)C3CC3)cc2c1 [Example 669, N-[5-[5-(2-cyano-2-methyl-propoxy)-2-(2,2,2-trifluoroethoxy)-4-pyridyl]pyrazolo[1,5-a]pyridin-2-yl]cyclopropanecarboxamide], which IC50 is on record?
The IC50 was 0.0526 µM.

How did the IC50 turn out when CC#Cc1cc(-c2ccn3nc(Nc4cc(C)nc(C)n4)cc3c2)c(OCC(C)(C)C#N)cn1 [Example 670, 3-[[4-[2-[(2,6-dimethylpyrimidin-4-yl)amino]pyrazolo[1,5-a]pyridin-5-yl]-6-prop-1-ynyl-3-pyridyl]oxy]-2,2-dimethyl-propanenitrile] was run?
Its IC50 is 0.0831 µM.

CC#Cc1cc(-c2ccn3nc(Nc4cc(C)nc(C)n4)cc3c2)c(OC[C@@H]2OCC[C@H]2O)cn1 [Example 671, (2S,3R)-2-[[4-[2-[(2,6-dimethylpyrimidin-4-yl)amino]pyrazolo[1,5-a]pyridin-5-yl]-6-prop-1-ynyl-3-pyridyl]oxymethyl]tetrahydrofuran-3-ol] was tested. Which IC50 did it give?
Its IC50 is 0.204 µM.

How did the IC50 turn out when Cc1cc(Nc2cc3cc(-c4cc(OCC#N)ncc4OCC(C)(C)C#N)ccn3n2)nc(C)n1 [Example 672, 3-[[6-(cyanomethoxy)-4-[2-[(2,6-dimethylpyrimidin-4-yl)amino]pyrazolo[1,5-a]pyridin-5-yl]-3-pyridyl]oxy]-2,2-dimethyl-propanenitrile] was run?
The IC50 was 0.004 µM.

For Cc1cc(Nc2cc3cc(-c4cc(OCCF)ncc4OCC(C)(C)C#N)ccn3n2)nc(C)n1 [Example 673, 3-[[4-[2-[(2,6-dimethylpyrimidin-4-yl)amino]pyrazolo[1,5-a]pyridin-5-yl]-6-(2-fluoroethoxy)-3-pyridyl]oxy]-2,2-dimethyl-propanenitrile], which IC50 is on record?
The IC50 was 0.00229 µM.

How did the IC50 turn out when CNc1nc(C)cc(Nc2cc3cc(-c4cc(O)ncc4OCC(C)(C)C#N)ccn3n2)n1 [Example 674, 3-[[6-hydroxy-4-[2-[[6-methyl-2-(methylamino)pyrimidin-4-yl]amino]pyrazolo[1,5-a]pyridin-5-yl]-3-pyridyl]oxy]-2,2-dimethyl-propanenitrile] was run?
The IC50 was 0.063 µM.

Which IC50 does the source give for CNc1nc(C)cc(Nc2cc3cc(-c4cc(Cl)ncc4OCC(C)(C)C#N)ccn3n2)n1 [Example 675, 3-[[6-chloro-4-[2-[[6-methyl-2-(methylamino)pyrimidin-4-yl]amino]pyrazolo[1,5-a]pyridin-5-yl]-3-pyridyl]oxy]-2,2-dimethyl-propanenitrile] here?
Its IC50 is 0.0391 µM.

With CNc1nc(C)cc(Nc2cc3cc(-c4cc(OC(F)F)ncc4OCC(C)(C)C#N)ccn3n2)n1 [Example 676, 3-[[6-(difluoromethoxy)-4-[2-[[6-methyl-2-(methylamino)pyrimidin-4-yl]amino]pyrazolo[1,5-a]pyridin-5-yl]-3-pyridyl]oxy]-2,2-dimethyl-propanenitrile] as the molecule, how does the IC50 read?
Its IC50 is 0.108 µM.

Which IC50 does the source give for Cc1cc(Nc2cc3cc(-c4cc(OC(F)F)ncc4O[C@H]4CC[C@H](O)CC4)ccn3n2)nc(C)n1 [Example 677, (1r,4r)-4-[[6-(difluoromethoxy)-4-[2-[(2,6-dimethylpyrimidin-4-yl)amino]pyrazolo[1,5-a]pyridin-5-yl]-3-pyridyl]oxy]cyclohexanol] here?
The IC50 was 0.000935 µM.

With Cc1cc(Nc2cc3cc(-c4cc(OCCO)ncc4OCC(C)(C)C#N)ccn3n2)nc(C)n1 [Example 678, 3-[[4-[2-[(2,6-dimethylpyrimidin-4-yl)amino]pyrazolo[1,5-a]pyridin-5-yl]-6-(2-hydroxyethoxy)-3-pyridyl]oxy]-2,2-dimethyl-propanenitrile] as the molecule, how does the IC50 read?
The IC50 was 0.0443 µM.

Cc1cc(Nc2cc3cc(-c4cc(OC(F)F)ncc4OCC(C)(C)O)ccn3n2)nc(C)n1 [Example 679, 1-[[6-(difluoromethoxy)-4-[2-[(2,6-dimethylpyrimidin-4-yl)amino]pyrazolo[1,5-a]pyridin-5-yl]-3-pyridyl]oxy]-2-methyl-propan-2-ol] was tested. Which IC50 did it give?
Its IC50 is 0.00319 µM.

Which IC50 does the source give for Cc1cc(Nc2cc3cc(-c4cc(OC(F)F)ncc4OCC(C)(C)C#N)ccn3n2)nc(N)n1 [Example 682, 3-[[4-[2-[(2-amino-6-methyl-pyrimidin-4-yl)amino]pyrazolo[1,5-a]pyridin-5-yl]-6-(difluoromethoxy)-3-pyridyl]oxy]-2,2-dimethyl-propanenitrile] here?
Its IC50 is < 0.000847 µM.

With Cc1cncc(Nc2cc3cc(-c4cc(OC(F)F)ncc4OCC(C)(C)C#N)ccn3n2)n1 [Example 683, 3-[[6-(difluoromethoxy)-4-[2-[(6-methylpyrazin-2-yl)amino]pyrazolo[1,5-a]pyridin-5-yl]-3-pyridyl]oxy]-2,2-dimethyl-propanenitrile] as the molecule, how does the IC50 read?
The IC50 was 0.000974 µM.

With Cc1cc(Nc2cc3cc(-c4cc(OC(F)F)ncc4OCC(C)(C)C#N)ccn3n2)nn(C)c1=O [Example 684, 3-[[6-(difluoromethoxy)-4-[2-[(1,5-dimethyl-6-oxo-pyridazin-3-yl)amino]pyrazolo[1,5-a]pyridin-5-yl]-3-pyridyl]oxy]-2,2-dimethyl-propanenitrile] as the molecule, how does the IC50 read?
The IC50 was 0.0102 µM.

Cc1cc(Nc2cc3cc(-c4cc(OC(F)F)ncc4OCC(C)(C)C#N)ccn3n2)ncn1 [Example 685, 3-[[6-(difluoromethoxy)-4-[2-[(6-methylpyrimidin-4-yl)amino]pyrazolo[1,5-a]pyridin-5-yl]-3-pyridyl]oxy]-2,2-dimethyl-propanenitrile] was tested. Which IC50 did it give?
The IC50 was 0.0312 µM.

For Cc1cc(-c2ccn3nc(Nc4cc(C)nc(C)n4)cc3c2)c(OC[C@H]2C[C@H](C#N)C2)cn1 [Example 686, 3-[[4-[2-[(2,6-dimethylpyrimidin-4-yl)amino]pyrazolo[1,5-a]pyridin-5-yl]-6-methyl-3-pyridyl]oxymethyl]cyclobutanecarbonitrile], which IC50 is on record?
The IC50 was 0.0179 µM.

With Cc1cc(-c2ccn3nc(Nc4cc(C)nc(C)n4)cc3c2)c(OC[C@H]2C[C@@H](C#N)C2)cn1 [Example 687, 3-[[4-[2-[(2,6-dimethylpyrimidin-4-yl)amino]pyrazolo[1,5-a]pyridin-5-yl]-6-methyl-3-pyridyl]oxymethyl]cyclobutanecarbonitrile] as the molecule, how does the IC50 read?
Its IC50 is 0.0759 µM.

Which IC50 does the source give for CC(C)(C#N)COc1cnc(OCC(F)F)cc1-c1ccn2nc(Nc3cccnn3)cc2c1 [Example 688, 3-[[6-(2,2-difluoroethoxy)-4-[2-(pyridazin-3-ylamino)pyrazolo[1,5-a]pyridin-5-yl]-3-pyridyl]oxy]-2,2-dimethyl-propanenitrile] here?
The IC50 was 0.00121 µM.

With CC(C)(C#N)COc1cnc(OCC(F)F)cc1-c1ccn2nc(Nc3cnccn3)cc2c1 [Example 689, 3-[[6-(2,2-difluoroethoxy)-4-[2-(pyrazin-2-ylamino)pyrazolo[1,5-a]pyridin-5-yl]-3-pyridyl]oxy]-2,2-dimethyl-propanenitrile] as the molecule, how does the IC50 read?
Its IC50 is 0.00136 µM.

For Cc1cc(Nc2cc3cc(-c4cc(OCC#N)ncc4O[C@H]4CC[C@H](O)CC4)ccn3n2)nc(C)n1 [Example 690, 2-[[4-[2-[(2,6-dimethylpyrimidin-4-yl)amino]pyrazolo[1,5-a]pyridin-5-yl]-5-(4-hydroxycyclohexoxy)-2-pyridyl]oxy]acetonitrile], which IC50 is on record?
Its IC50 is 0.00685 µM.

CC(C)(C#N)COc1cnc(OC(F)F)cc1-c1ccn2nc(Nc3cncc(N)n3)cc2c1 [Example 691, 3-[[4-[2-[(6-aminopyrazin-2-yl)amino]pyrazolo[1,5-a]pyridin-5-yl]-6-(difluoromethoxy)-3-pyridyl]oxy]-2,2-dimethyl-propanenitrile] was tested. Which IC50 did it give?
The IC50 was 0.001 µM.

With Cn1cc(Nc2cc3cc(-c4cc(OC(F)F)ncc4OCC(C)(C)C#N)ccn3n2)cn1 [Example 692, 3-[[6-(difluoromethoxy)-4-[2-[(1-methylpyrazol-4-yl)amino]pyrazolo[1,5-a]pyridin-5-yl]-3-pyridyl]oxy]-2,2-dimethyl-propanenitrile] as the molecule, how does the IC50 read?
Its IC50 is 0.00228 µM.

How did the IC50 turn out when Cc1cc(Nc2cc3cc(-c4cc(OCC(F)F)ncc4OCC(C)(C)C#N)ccn3n2)nn(C)c1=O [Example 693, 3-[[6-(2,2-difluoroethoxy)-4-[2-[(1,5-dimethyl-6-oxo-pyridazin-3-yl)amino]pyrazolo[1,5-a]pyridin-5-yl]-3-pyridyl]oxy]-2,2-dimethyl-propanenitrile] was run?
Its IC50 is 0.0766 µM.

With CC(C)(C#N)COc1cnc(OC(F)F)cc1-c1ccn2nc(Nc3cccnc3)cc2c1 [Example 694, 3-[[6-(difluoromethoxy)-4-[2-(3-pyridylamino)pyrazolo[1,5-a]pyridin-5-yl]-3-pyridyl]oxy]-2,2-dimethyl-propanenitrile] as the molecule, how does the IC50 read?
The IC50 was 0.0195 µM.

How did the IC50 turn out when CC(C)(C#N)COc1cnc(OC(F)F)cc1-c1ccn2nc(Nc3ccc(CN4CCOCC4)cn3)cc2c1 [Example 695, 3-[[6-(difluoromethoxy)-4-[2-[[5-(morpholinomethyl)-2-pyridyl]amino]pyrazolo[1,5-a]pyridin-5-yl]-3-pyridyl]oxy]-2,2-dimethyl-propanenitrile] was run?
The IC50 was 0.117 µM.

For Cc1cncc(Nc2cc3cc(-c4cc(OCC(F)F)ncc4OCC(C)(C)C#N)ccn3n2)n1 [Example 696, 3-[[6-(2,2-difluoroethoxy)-4-[2-[(6-methylpyrazin-2-yl)amino]pyrazolo[1,5-a]pyridin-5-yl]-3-pyridyl]oxy]-2,2-dimethyl-propanenitrile], which IC50 is on record?
The IC50 was 0.0821 µM.

Which IC50 does the source give for Cn1nc(Nc2cc3cc(-c4cc(OCC(F)F)ncc4OCC(C)(C)C#N)ccn3n2)ccc1=O [Example 697, 3-[[6-(2,2-difluoroethoxy)-4-[2-[(1-methyl-6-oxo-pyridazin-3-yl)amino]pyrazolo[1,5-a]pyridin-5-yl]-3-pyridyl]oxy]-2,2-dimethyl-propanenitrile] here?
Its IC50 is 0.021 µM.
